Measured values taken from the kinase profiling compilation of Christmann-Franck et al. (2016).

What was measured:
Test in all cases: KINOMEscan competition binding
Conditions in all cases: compound 10.0 µM
[1] = tested on: RET (human), P07949 [V804M]
EPHB4 (human) = EPHB4 (human) (UniProt P54760)
PKN1 (human) = PKN1 (human) (UniProt Q16512)
PIP4K2B (human) = PIP4K2B (human) (UniProt P78356)
CDK2 (human) = CDK2 (human) (UniProt P24941)
[2] = tested on: FLT3 (human), P36888 [N841I]
PRKCQ (human) = PRKCQ (human) (UniProt Q04759)
[3] = tested on: RET (human), P07949 [V804L]
[4] = tested on: KIT (human), P10721 [V559D]
PHKG1 (human) = PHKG1 (human) (UniProt Q16816)
HIPK1 (human) = HIPK1 (human) (UniProt Q86Z02)
CDK14 (human) = CDK14 (human) (UniProt O94921)
DAPK1 (human) = DAPK1 (human) (UniProt P53355)
CAMK2A (human) = CAMK2A (human) (UniProt Q9UQM7)
PTK2 (human) = PTK2 (human) (UniProt Q05397)
TNK1 (human) = TNK1 (human) (UniProt Q13470)
ULK3 (human) = ULK3 (human) (UniProt Q6PHR2)
PRKAA1 (human) = PRKAA1 (human) (UniProt Q13131)
IKBKE (human) = IKBKE (human) (UniProt Q14164)
TAOK3 (human) = TAOK3 (human) (UniProt Q9H2K8)
RPS6KA2 KD1 (human) = RPS6KA2 KD1 (human) (UniProt Q15349)
TGFBR2 (human) = TGFBR2 (human) (UniProt P37173)
MAPK10 (human) = MAPK10 (human) (UniProt P53779)
LTK (human) = LTK (human) (UniProt P29376)
CDK19 (human) = CDK19 (human) (UniProt Q9BWU1)
MINK1 (human) = MINK1 (human) (UniProt Q8N4C8)
CSK (human) = CSK (human) (UniProt P41240)
ERBB2 (human) = ERBB2 (human) (UniProt P04626)
ANKK1 (human) = ANKK1 (human) (UniProt Q8NFD2)
EPHA5 (human) = EPHA5 (human) (UniProt P54756)
EIF2AK2 (human) = EIF2AK2 (human) (UniProt P19525)
IKBKB (human) = IKBKB (human) (UniProt O14920)
MYLK2 (human) = MYLK2 (human) (UniProt Q9H1R3)
FER (human) = FER (human) (UniProt P16591)
CDK18 (human) = CDK18 (human) (UniProt Q07002)
SRC (human) = SRC (human) (UniProt P12931)
[5] = tested on: EGFR (human), P00533 [A750P; 747-749 del]
[6] = biological target: JAK1 JH2 pseudokinase (human) (UniProt P23458)
RPS6KA5 KD1 (human) = RPS6KA5 KD1 (human) (UniProt O75582)
FGFR4 (human) = FGFR4 (human) (UniProt P22455)
PTK2B (human) = PTK2B (human) (UniProt Q14289)
DCLK1 (human) = DCLK1 (human) (UniProt O15075)

Sequence of PRKAA1 (human) (Q13131 whole entry, looked up): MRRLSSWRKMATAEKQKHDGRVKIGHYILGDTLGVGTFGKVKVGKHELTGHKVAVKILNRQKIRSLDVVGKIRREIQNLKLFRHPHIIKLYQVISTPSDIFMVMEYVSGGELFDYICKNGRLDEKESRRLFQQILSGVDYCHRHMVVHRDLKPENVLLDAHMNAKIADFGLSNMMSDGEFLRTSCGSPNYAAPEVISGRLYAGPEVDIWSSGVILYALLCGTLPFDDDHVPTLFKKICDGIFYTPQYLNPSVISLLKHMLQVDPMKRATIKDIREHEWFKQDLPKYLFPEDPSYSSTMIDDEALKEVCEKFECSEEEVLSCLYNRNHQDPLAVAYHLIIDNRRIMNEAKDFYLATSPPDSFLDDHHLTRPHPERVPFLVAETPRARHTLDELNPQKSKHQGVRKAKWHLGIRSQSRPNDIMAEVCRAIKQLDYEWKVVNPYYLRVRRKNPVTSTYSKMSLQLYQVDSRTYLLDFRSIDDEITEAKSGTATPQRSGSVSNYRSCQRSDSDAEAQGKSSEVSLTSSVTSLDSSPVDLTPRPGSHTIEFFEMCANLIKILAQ
Sequence of EPHB4 (human) (P54760 whole entry, looked up): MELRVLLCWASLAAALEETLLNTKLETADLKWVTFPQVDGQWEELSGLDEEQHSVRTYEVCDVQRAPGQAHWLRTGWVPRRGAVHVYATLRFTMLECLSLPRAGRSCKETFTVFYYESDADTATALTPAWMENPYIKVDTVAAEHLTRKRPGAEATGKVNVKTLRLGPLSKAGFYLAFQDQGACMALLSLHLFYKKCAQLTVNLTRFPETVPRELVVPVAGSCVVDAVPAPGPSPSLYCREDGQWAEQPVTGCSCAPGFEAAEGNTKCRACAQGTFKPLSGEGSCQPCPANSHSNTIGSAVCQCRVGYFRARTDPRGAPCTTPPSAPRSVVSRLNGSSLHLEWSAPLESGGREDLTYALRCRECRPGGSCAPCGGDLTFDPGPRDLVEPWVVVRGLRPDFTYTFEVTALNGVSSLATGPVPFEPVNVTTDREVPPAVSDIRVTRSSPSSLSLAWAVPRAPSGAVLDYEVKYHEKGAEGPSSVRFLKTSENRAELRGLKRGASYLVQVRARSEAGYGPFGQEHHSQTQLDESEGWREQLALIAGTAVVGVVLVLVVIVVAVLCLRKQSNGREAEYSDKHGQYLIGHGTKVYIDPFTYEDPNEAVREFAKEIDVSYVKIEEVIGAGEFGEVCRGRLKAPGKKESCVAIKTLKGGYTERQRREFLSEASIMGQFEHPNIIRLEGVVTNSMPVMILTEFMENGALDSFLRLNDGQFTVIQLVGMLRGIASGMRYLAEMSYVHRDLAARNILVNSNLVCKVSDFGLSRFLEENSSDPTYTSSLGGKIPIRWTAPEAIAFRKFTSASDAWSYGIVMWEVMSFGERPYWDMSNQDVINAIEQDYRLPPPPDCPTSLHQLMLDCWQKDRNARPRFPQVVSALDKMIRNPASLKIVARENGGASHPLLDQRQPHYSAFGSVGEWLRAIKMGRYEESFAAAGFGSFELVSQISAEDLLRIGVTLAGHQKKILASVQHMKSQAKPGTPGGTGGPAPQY
Sequence of TAOK3 (human) (Q9H2K8 whole entry, looked up): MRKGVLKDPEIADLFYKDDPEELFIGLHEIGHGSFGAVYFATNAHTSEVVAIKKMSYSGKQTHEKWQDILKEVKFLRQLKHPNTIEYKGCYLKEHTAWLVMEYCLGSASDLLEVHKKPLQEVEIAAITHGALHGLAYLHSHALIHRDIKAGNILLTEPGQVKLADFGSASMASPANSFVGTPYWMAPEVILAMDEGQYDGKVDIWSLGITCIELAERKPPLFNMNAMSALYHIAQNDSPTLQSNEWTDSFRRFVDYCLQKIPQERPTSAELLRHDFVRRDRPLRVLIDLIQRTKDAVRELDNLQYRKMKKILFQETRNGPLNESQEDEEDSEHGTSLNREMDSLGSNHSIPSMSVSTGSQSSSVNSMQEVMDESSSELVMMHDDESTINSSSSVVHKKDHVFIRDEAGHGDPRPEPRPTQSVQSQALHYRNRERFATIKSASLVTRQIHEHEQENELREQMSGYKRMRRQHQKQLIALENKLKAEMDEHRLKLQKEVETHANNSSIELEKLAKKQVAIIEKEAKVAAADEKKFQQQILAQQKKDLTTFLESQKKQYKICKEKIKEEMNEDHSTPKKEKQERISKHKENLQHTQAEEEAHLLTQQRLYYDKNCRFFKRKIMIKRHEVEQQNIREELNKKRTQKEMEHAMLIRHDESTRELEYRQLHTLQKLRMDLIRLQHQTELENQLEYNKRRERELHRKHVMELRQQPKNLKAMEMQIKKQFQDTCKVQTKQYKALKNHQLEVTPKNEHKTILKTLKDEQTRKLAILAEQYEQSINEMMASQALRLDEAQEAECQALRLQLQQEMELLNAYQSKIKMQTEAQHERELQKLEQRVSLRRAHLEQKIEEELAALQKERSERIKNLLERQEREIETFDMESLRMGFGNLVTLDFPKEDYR
Sequence of KIT (human), P10721 [V559D] (P10721 whole entry V559D, looked up): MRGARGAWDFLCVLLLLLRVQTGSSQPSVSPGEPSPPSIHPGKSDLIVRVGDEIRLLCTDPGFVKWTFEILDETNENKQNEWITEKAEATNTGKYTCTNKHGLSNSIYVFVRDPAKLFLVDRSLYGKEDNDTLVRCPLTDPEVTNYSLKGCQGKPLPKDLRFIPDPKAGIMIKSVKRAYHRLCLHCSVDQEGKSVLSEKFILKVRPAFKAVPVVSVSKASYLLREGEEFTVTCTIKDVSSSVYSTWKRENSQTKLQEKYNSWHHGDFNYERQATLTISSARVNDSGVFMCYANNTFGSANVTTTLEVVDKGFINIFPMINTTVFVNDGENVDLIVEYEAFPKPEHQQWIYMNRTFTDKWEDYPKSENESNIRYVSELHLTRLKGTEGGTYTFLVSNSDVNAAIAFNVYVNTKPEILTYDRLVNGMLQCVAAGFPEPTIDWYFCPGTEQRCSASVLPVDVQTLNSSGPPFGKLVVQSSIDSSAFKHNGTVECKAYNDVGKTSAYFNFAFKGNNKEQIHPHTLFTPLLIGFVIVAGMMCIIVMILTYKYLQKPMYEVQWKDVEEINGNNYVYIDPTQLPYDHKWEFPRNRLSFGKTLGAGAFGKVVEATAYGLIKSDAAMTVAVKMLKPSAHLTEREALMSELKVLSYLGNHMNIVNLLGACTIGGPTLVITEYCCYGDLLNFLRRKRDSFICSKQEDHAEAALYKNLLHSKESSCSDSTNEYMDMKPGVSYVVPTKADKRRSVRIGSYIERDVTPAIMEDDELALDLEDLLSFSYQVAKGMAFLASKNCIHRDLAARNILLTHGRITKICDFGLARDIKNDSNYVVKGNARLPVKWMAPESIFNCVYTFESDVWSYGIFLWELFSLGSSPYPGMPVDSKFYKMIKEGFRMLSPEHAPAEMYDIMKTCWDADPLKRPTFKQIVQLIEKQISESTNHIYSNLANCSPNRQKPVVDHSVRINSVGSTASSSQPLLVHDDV
Sequence of CDK19 (human) (Q9BWU1 whole entry, looked up): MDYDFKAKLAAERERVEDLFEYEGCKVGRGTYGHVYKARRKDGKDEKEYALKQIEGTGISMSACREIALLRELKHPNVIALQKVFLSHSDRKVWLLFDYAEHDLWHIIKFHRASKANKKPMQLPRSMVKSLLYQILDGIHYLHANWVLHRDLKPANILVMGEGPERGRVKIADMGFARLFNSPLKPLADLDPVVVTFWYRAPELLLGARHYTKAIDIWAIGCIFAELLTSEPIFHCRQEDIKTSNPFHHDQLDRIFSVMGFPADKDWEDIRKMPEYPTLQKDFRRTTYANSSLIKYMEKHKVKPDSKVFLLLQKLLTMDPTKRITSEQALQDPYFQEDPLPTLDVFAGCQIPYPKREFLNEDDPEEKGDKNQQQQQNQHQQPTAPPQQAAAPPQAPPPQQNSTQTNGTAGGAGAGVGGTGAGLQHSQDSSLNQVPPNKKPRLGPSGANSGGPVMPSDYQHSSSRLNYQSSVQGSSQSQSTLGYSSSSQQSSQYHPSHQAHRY
Sequence of ULK3 (human) (Q6PHR2 whole entry, looked up): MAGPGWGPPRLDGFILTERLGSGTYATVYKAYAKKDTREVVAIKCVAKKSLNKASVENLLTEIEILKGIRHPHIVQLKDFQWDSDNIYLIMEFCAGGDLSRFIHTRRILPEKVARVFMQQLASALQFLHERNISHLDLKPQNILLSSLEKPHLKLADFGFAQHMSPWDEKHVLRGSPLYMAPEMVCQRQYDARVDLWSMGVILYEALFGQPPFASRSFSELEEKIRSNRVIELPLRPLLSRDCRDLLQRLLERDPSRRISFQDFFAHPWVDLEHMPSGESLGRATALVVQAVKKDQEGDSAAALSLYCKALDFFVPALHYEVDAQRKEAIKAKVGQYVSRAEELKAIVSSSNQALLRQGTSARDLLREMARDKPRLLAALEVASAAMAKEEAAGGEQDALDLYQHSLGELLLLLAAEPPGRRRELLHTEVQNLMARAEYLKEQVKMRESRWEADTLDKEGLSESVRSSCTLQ
Sequence of SRC (human) (P12931 whole entry, looked up): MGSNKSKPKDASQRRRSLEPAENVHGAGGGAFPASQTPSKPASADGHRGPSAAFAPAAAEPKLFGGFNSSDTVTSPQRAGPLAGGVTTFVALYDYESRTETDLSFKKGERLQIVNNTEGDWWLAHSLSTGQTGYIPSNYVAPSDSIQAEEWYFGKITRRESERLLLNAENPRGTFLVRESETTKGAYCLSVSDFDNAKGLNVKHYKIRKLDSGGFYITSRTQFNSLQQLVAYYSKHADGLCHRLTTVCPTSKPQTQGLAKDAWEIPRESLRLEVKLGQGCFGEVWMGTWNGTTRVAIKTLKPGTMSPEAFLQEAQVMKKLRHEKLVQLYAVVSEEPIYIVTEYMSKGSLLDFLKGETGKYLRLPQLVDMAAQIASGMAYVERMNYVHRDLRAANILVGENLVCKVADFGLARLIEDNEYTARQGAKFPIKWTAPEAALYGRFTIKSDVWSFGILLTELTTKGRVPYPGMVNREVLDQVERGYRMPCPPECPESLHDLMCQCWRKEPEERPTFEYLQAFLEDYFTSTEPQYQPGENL

Structure (SMILES): CCN1CCN(Cc2ccc(NC(=O)c3ccc(C)c(/C=C/c4cnc(Nc5cc(N6CCNCC6)nc(C)n5)cn4)c3)cc2C(F)(F)F)CC1
- kinase still bound, per cent of control [1]: 0.15%
- kinase still bound, per cent of control (EPHB4 (human)): 23%
- kinase still bound, per cent of control (PKN1 (human)): 100%
- kinase still bound, per cent of control (PIP4K2B (human)): 83%
- kinase still bound, per cent of control (CDK2 (human)): 100%
- kinase still bound, per cent of control [2]: 0%
- kinase still bound, per cent of control (PRKCQ (human)): 81%
- kinase still bound, per cent of control [3]: 1.2%
- kinase still bound, per cent of control [4]: 0.05%
- kinase still bound, per cent of control (PHKG1 (human)): 100%
- kinase still bound, per cent of control (HIPK1 (human)): 34%
- kinase still bound, per cent of control (CDK14 (human)): 88%
- kinase still bound, per cent of control (DAPK1 (human)): 85%
- kinase still bound, per cent of control (CAMK2A (human)): 100%
- kinase still bound, per cent of control (PTK2 (human)): 100%
- kinase still bound, per cent of control (TNK1 (human)): 13%
- kinase still bound, per cent of control (ULK3 (human)): 1.6%
- kinase still bound, per cent of control (PRKAA1 (human)): 18%
- kinase still bound, per cent of control (IKBKE (human)): 90%
- kinase still bound, per cent of control (TAOK3 (human)): 0%
- kinase still bound, per cent of control (RPS6KA2 KD1 (human)): 69%
- kinase still bound, per cent of control (TGFBR2 (human)): 54%
- kinase still bound, per cent of control (MAPK10 (human)): 54%
- kinase still bound, per cent of control (LTK (human)): 100%
- kinase still bound, per cent of control (CDK19 (human)): 3.5%
- kinase still bound, per cent of control (MINK1 (human)): 4.3%
- kinase still bound, per cent of control (CSK (human)): 0.55%
- kinase still bound, per cent of control (ERBB2 (human)): 0%
- kinase still bound, per cent of control (ANKK1 (human)): 9.6%
- kinase still bound, per cent of control (EPHA5 (human)): 20%
- kinase still bound, per cent of control (EIF2AK2 (human)): 80%
- kinase still bound, per cent of control (IKBKB (human)): 0.95%
- kinase still bound, per cent of control (MYLK2 (human)): 3.8%
- kinase still bound, per cent of control (FER (human)): 78%
- kinase still bound, per cent of control (CDK18 (human)): 81%
- kinase still bound, per cent of control (SRC (human)): 0.25%
- kinase still bound, per cent of control [5]: 2.9%
- kinase still bound, per cent of control [6]: 94%
- kinase still bound, per cent of control (RPS6KA5 KD1 (human)): 100%
- kinase still bound, per cent of control (FGFR4 (human)): 34%
- kinase still bound, per cent of control (PTK2B (human)): 36%
- kinase still bound, per cent of control (DCLK1 (human)): 97%

Structure (SMILES): COc1cc(N2CCC(N3CCN(C)CC3)CC2)ccc1Nc1ncc(Cl)c(Nc2ccccc2S(=O)(=O)C(C)C)n1
- kinase still bound, per cent of control (EPHB4 (human)): 17%
- kinase still bound, per cent of control (PKN1 (human)): 0.5%
- kinase still bound, per cent of control (PIP4K2B (human)): 11%
- kinase still bound, per cent of control (CDK2 (human)): 24%
- kinase still bound, per cent of control (PRKCQ (human)): 13%
- kinase still bound, per cent of control [4]: 0.1%
- kinase still bound, per cent of control (PHKG1 (human)): 0.1%
- kinase still bound, per cent of control (HIPK1 (human)): 40%
- kinase still bound, per cent of control (CDK14 (human)): 40%
- kinase still bound, per cent of control (DAPK1 (human)): 6.4%
- kinase still bound, per cent of control (CAMK2A (human)): 1.2%
- kinase still bound, per cent of control (PTK2 (human)): 0%
- kinase still bound, per cent of control (TNK1 (human)): 0.45%
- kinase still bound, per cent of control (ULK3 (human)): 0%
- kinase still bound, per cent of control (PRKAA1 (human)): 0.1%
- kinase still bound, per cent of control (IKBKE (human)): 25%
- kinase still bound, per cent of control (TAOK3 (human)): 0.1%
- kinase still bound, per cent of control (RPS6KA2 KD1 (human)): 0.05%
- kinase still bound, per cent of control (TGFBR2 (human)): 2.7%
- kinase still bound, per cent of control (MAPK10 (human)): 2.6%
- kinase still bound, per cent of control (LTK (human)): 0%
- kinase still bound, per cent of control (CDK19 (human)): 40%
- kinase still bound, per cent of control (MINK1 (human)): 40%
- kinase still bound, per cent of control (CSK (human)): 2%
- kinase still bound, per cent of control (ERBB2 (human)): 8%
- kinase still bound, per cent of control (ANKK1 (human)): 40%
- kinase still bound, per cent of control (EPHA5 (human)): 21%
- kinase still bound, per cent of control (EIF2AK2 (human)): 40%
- kinase still bound, per cent of control (IKBKB (human)): 40%
- kinase still bound, per cent of control (MYLK2 (human)): 40%
- kinase still bound, per cent of control (FER (human)): 0.05%
- kinase still bound, per cent of control (CDK18 (human)): 40%
- kinase still bound, per cent of control (SRC (human)): 0.2%
- kinase still bound, per cent of control [5]: 0%
- kinase still bound, per cent of control [6]: 4.2%
- kinase still bound, per cent of control (RPS6KA5 KD1 (human)): 40%
- kinase still bound, per cent of control (PTK2B (human)): 0%
- kinase still bound, per cent of control (DCLK1 (human)): 0%

Structure (SMILES): CCOc1cc(N2CCC(N3CCCCC3)CC2)ccc1Nc1nc(Nc2ccccc2S(=O)(=O)C(C)C)c2cn[nH]c2n1
- kinase still bound, per cent of control [1]: 100%
- kinase still bound, per cent of control (EPHB4 (human)): 99%
- kinase still bound, per cent of control (PKN1 (human)): 100%
- kinase still bound, per cent of control (PIP4K2B (human)): 100%
- kinase still bound, per cent of control (CDK2 (human)): 100%
- kinase still bound, per cent of control [2]: 100%
- kinase still bound, per cent of control (PRKCQ (human)): 100%
- kinase still bound, per cent of control [3]: 82%
- kinase still bound, per cent of control [4]: 86%
- kinase still bound, per cent of control (PHKG1 (human)): 24%
- kinase still bound, per cent of control (HIPK1 (human)): 82%
- kinase still bound, per cent of control (CDK14 (human)): 100%
- kinase still bound, per cent of control (DAPK1 (human)): 60%
- kinase still bound, per cent of control (CAMK2A (human)): 34%
- kinase still bound, per cent of control (PTK2 (human)): 0.2%
- kinase still bound, per cent of control (TNK1 (human)): 2.4%
- kinase still bound, per cent of control (ULK3 (human)): 100%
- kinase still bound, per cent of control (PRKAA1 (human)): 51%
- kinase still bound, per cent of control (IKBKE (human)): 100%
- kinase still bound, per cent of control (TAOK3 (human)): 36%
- kinase still bound, per cent of control (RPS6KA2 KD1 (human)): 77%
- kinase still bound, per cent of control (TGFBR2 (human)): 100%
- kinase still bound, per cent of control (MAPK10 (human)): 7.2%
- kinase still bound, per cent of control (LTK (human)): 1.7%
- kinase still bound, per cent of control (CDK19 (human)): 100%
- kinase still bound, per cent of control (MINK1 (human)): 71%
- kinase still bound, per cent of control (CSK (human)): 100%
- kinase still bound, per cent of control (ERBB2 (human)): 37%
- kinase still bound, per cent of control (ANKK1 (human)): 100%
- kinase still bound, per cent of control (EPHA5 (human)): 100%
- kinase still bound, per cent of control (EIF2AK2 (human)): 100%
- kinase still bound, per cent of control (IKBKB (human)): 100%
- kinase still bound, per cent of control (MYLK2 (human)): 100%
- kinase still bound, per cent of control (FER (human)): 9.1%
- kinase still bound, per cent of control (CDK18 (human)): 100%
- kinase still bound, per cent of control (SRC (human)): 69%
- kinase still bound, per cent of control [5]: 10%
- kinase still bound, per cent of control [6]: 1.3%
- kinase still bound, per cent of control (RPS6KA5 KD1 (human)): 100%
- kinase still bound, per cent of control (FGFR4 (human)): 100%
- kinase still bound, per cent of control (PTK2B (human)): 5%
- kinase still bound, per cent of control (DCLK1 (human)): 5.2%

Structure (SMILES): CCN1CCN(Cc2ccc(NC(=O)c3ccc(C)c(Oc4ccnc5[nH]ccc45)c3)cc2C(F)(F)F)CC1
- kinase still bound, per cent of control [1]: 1%
- kinase still bound, per cent of control (CDK2 (human)): 11%
- kinase still bound, per cent of control [2]: 0%
- kinase still bound, per cent of control [3]: 0.8%
- kinase still bound, per cent of control [4]: 0%
- kinase still bound, per cent of control (HIPK1 (human)): 6.2%
- kinase still bound, per cent of control (CDK14 (human)): 0.4%
- kinase still bound, per cent of control (PTK2 (human)): 23%
- kinase still bound, per cent of control (TNK1 (human)): 0.35%
- kinase still bound, per cent of control (ULK3 (human)): 0.1%
- kinase still bound, per cent of control (PRKAA1 (human)): 33%
- kinase still bound, per cent of control (MAPK10 (human)): 12%
- kinase still bound, per cent of control (LTK (human)): 1.2%
- kinase still bound, per cent of control (CDK19 (human)): 0.1%
- kinase still bound, per cent of control (CSK (human)): 0.45%
- kinase still bound, per cent of control (ANKK1 (human)): 23%
- kinase still bound, per cent of control (IKBKB (human)): 24%
- kinase still bound, per cent of control (MYLK2 (human)): 8.4%
- kinase still bound, per cent of control (FER (human)): 0.5%
- kinase still bound, per cent of control (CDK18 (human)): 1.8%
- kinase still bound, per cent of control (SRC (human)): 0.2%
- kinase still bound, per cent of control [5]: 1.5%
- kinase still bound, per cent of control [6]: 11%
- kinase still bound, per cent of control (RPS6KA5 KD1 (human)): 4.7%
- kinase still bound, per cent of control (FGFR4 (human)): 0.45%
- kinase still bound, per cent of control (PTK2B (human)): 2.1%
